Assay results: PubChem BioAssay (NCI)
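Step 1: Grow cells in 96-well plates. Step 2: Expose to compound for 48 hours at 5 concentrations. Step 3: Interpolate endpoints linearly; if unreached, use highest concentration. GI50 = concentration required for 50% inhibition of growth. TGI is the concentration that stops growth completely.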

Tests used:
Assay in all cases: NCI-60 cell line screen, 48 h
M14 melanoma = test system: M14 melanoma
NCI-H226 lung = test system: NCI-H226 lung
SR leukemia = test system: SR leukemia
TK-10 renal = test system: TK-10 renal
HT29 colon = test system: HT29 colon
KM12 colon = test system: KM12 colon
SN12C renal = test system: SN12C renal
SK-MEL-2 melanoma = test system: SK-MEL-2 melanoma
DU-145 prostate = test system: DU-145 prostate
EKVX NSCLC = test system: EKVX NSCLC

Row | Compound | GI50 (M14 melanoma) [µM] | TGI (M14 melanoma) [µM] | GI50 (NCI-H226 lung) [µM] | TGI (NCI-H226 lung) [µM] | GI50 (SR leukemia) [µM] | TGI (SR leukemia) [µM] | GI50 (TK-10 renal) [µM] | TGI (TK-10 renal) [µM] | GI50 (HT29 colon) [µM] | TGI (HT29 colon) [µM] | GI50 (KM12 colon) [µM] | TGI (KM12 colon) [µM] | GI50 (SN12C renal) [µM] | TGI (SN12C renal) [µM] | GI50 (SK-MEL-2 melanoma) [µM] | TGI (SK-MEL-2 melanoma) [µM] | GI50 (DU-145 prostate) [µM] | TGI (DU-145 prostate) [µM] | TGI (EKVX NSCLC) [µM] | GI50 (EKVX NSCLC) [µM]
1 | COc1cccc(-n2cc(-c3nc(Nc4cc(C)[nH]n4)c4ccccc4n3)nn2)c1 | 1.1 | 9.51 | 4.02 | 10.6 | 2.03 | 13.5 | 0.438 | 8.42 | 7.05 | 14.5 | 1.69 | 7.39 | 3.04 | 12.4 | 1.71 | 9.27 | 5.51 | 11.7 |  | 
2 | Cc1ccc(NC(=O)CC/C(CC(=O)C(C)(C)C)=N/NC(=O)C[N+](C)(C)C)cc1C |  | > 100 |  | > 100 |  | > 100 |  | > 100 |  | > 100 |  | > 100 |  | > 100 |  | > 100 |  |  | > 100 | 
3 | Cc1cccc2nc3cccc(C(=O)NCCNCCNCCNC(=O)c4cccc5nc6cccc(C)c6nc45)c3nc12 | < 0.0241 | 1.7 | < 0.0128 | 0.274 | < 0.01 | 1.22 | < 0.0147 | 0.846 | < 0.01 | 0.254 | < 0.01 | 3.42 | 0.0489 | 14.1 | < 0.01 | 0.186 |  |  | 16.3 | 0.291
4 | COC(=O)NN1C(C)=C(C(=O)OC)C2(C#N)C(C(=O)OC)=C(C)N(NC(=O)OC)C12N (centres undefined) |  | > 100 |  | > 100 |  |  |  | > 100 |  | > 100 |  |  |  | > 100 |  | > 100 |  |  | > 100 | 
5 | CCOC(=O)c1ccc2c(c1)nc(/C=C/c1ccc(Cl)cc1)n2-c1cc(C(C)(C)C)[nH]n1 | 20.9 | > 100 | 3.63 | 27.2 |  |  | 3.11 | 7.2 | 11.3 | > 100 | 12.9 | > 100 | 7.3 | 81 |  |  | 21.5 | > 100 |  | 
6 | COC(=O)C[CH2][Ge]([CH3])([CH3])[S]c1ccccc1 | 36.5 | > 100 | 27.4 | > 100 |  |  | 55.7 | > 100 | 44.2 | > 100 | 36 | > 100 | 18.3 | 37.2 | 27.4 | 71.8 |  |  | 86.4 | 28.2
7 | COC1=C(Br)C(O)C2(C=C1Br)CC(C(=O)NCCCCNC(=O)C1=NOC3(C=C(Br)C(OC)=C(Br)C3O)C1)=NO2 (centres undefined) |  | 37 |  | 41.2 |  | 38.9 |  | > 100 |  | 38.8 |  | 27.3 |  | > 100 |  | 52.8 |  | > 100 |  | 
8 | NC(=O)c1ncn(CCN2CCN(C(=O)NCCCCCCNC(=O)N3CCN(CCn4cnc(C(N)=O)c4N)CC3)CC2)c1N |  | > 100 |  | > 100 |  | > 100 |  | > 100 |  | > 100 |  | > 100 |  | > 100 |  | > 100 |  |  | > 100 | 
9 | COc1ccc2c(c1)[n+]([O-])c(-c1ccc(Br)cc1)c(N)[n+]2[O-] |  |  |  | > 100 |  | > 100 |  |  |  | > 100 |  | > 100 |  | > 100 |  | > 100 |  |  | > 100 | 
10 | CCCCCc1cc[n+](CC(=O)c2ccc([N+](=O)[O-])cc2)cc1 | 7.03 | 22.7 | 6.73 | 24.4 |  |  | 9.65 | 33.7 | 2.39 | 8.32 | 3.69 | 14.1 | 9.63 | > 100 | 2.7 | 8.66 | 8.72 | 37.8 | 17.5 | 3.5
11 | COC(=O)C1=Cc2cc(OC)c(OC)cc2[C@H](c2ccc(OC)c(OC)c2)C1C(=O)OC (some centres undefined) |  | > 100 |  | > 100 |  | > 100 |  | > 100 |  | > 100 |  | > 100 |  | > 100 |  |  |  |  | > 100 | 
12 | Cc1cc(=O)n2c3c(c4c(cc13)c(CO)cc(=O)n4C)OC2 |  | > 100 |  | 25.8 |  |  |  | 62.4 |  | > 100 |  | > 100 |  | > 100 |  | 25.1 |  |  | > 100 | 
13 | N.N.O=P([O-])([O-])CN(CCN(CP(=O)([O-])[O-])CP(=O)([O-])[O-])CP(=O)([O-])[O-].[Pt+2] | > 100 | > 100 | > 100 | > 100 |  |  | > 100 | > 100 | > 100 | > 100 | > 100 | > 100 | > 100 | > 100 | > 100 | > 100 |  |  | > 100 | > 100
14 | C[N+](C)(CCCCCC[N+](C)(C)CCCN1C(=O)c2cc3ccccc3cc2C1=O)CCCN1C(=O)c2cc3ccccc3cc2C1=O | > 37.5 | > 37.5 | > 37.5 | > 37.5 |  |  | > 37.5 | > 37.5 | > 37.5 | > 37.5 | > 37.5 | > 37.5 | > 37.5 | > 37.5 | > 37.5 | > 37.5 | > 37.5 | > 37.5 | > 37.5 | > 37.5
15 | COC(=O)c1ccc2c(c1)C(=O)c1c-2n(C)c(=O)c2cc(OC)c(OC)cc12 | > 50 | > 50 | > 50 | > 50 |  |  | 32.1 | > 50 | > 50 | > 50 | > 50 | > 50 | > 50 | > 50 | 37.8 | > 50 | > 50 | > 50 | > 50 | > 50
16 | CN(C)CCC=C1c2ccccc2C(C)(C)c2ccccc21 | 2.94 | 9.78 |  |  |  |  | 18.4 | 37 | 3.06 | 13.6 | 14.8 | 28.4 | 15.6 | 34 | 6.26 | 22.1 | 14.3 | 27.3 | 30 | 14.4
